# Assay results as given in US6841657B2, “Inhibitors of HIV membrane fusion” (priority 1998, dated 2005).
# Like-named read-outs stand apart in the source and are kept apart here. Positions of bridges follow the written chain, without caps; N, C: chain ends. Non-standard residues stand in square brackets, D forms with d.
# Experiments:
# [1] = test system: recombinant luciferase-expressing HIV-1; assay type: cell-based; conditions: for IC50: recombinant luciferase-expressing HIV-1, mean ± standard error, triplicate, read-out: IC50 viral entry
# Procedure: The potency of C34 peptides in inhibiting viral infection and the HIV-1 infection inhibitory activity of the D-peptides were assayed using recombinant luciferase-expressing HIV-1 (Chen, B. K. et al., J. Virol., 68:654 (1994); Malashkevich, V. N., et al., Proc. Natl. Acad. Sci., USA, 95:9134 (1998)).
# (§1) The apparent melting temperatures (Tm) were estimated from the thermal dependence of the CD signal at 222 nm. Inhibition of viral entry was measured in a cell-culture infection assay using recombinant luciferase-expressing HIV-1. Inhibition of cell-cell fusion was measured in a syncytium assay. The means and standard errors are from triplicate trials.
# N36 peptide = biological target: T1, N36 peptide (Human immunodeficiency virus type 1 group M subtype B, UniProt P04578); assay type: physicochemical, HIV-1; conditions: for Tm (apparent melting temperature) of N36/C34 complex: C34 peptide 10 μM + N36 10 μM, phosphate-buffered saline pH 7.0, CD signal at 222 nm; for mean residue ellipticity [θ]222 of N36/C34 complex: CD at 222 nm, 0° C., PBS pH 7.0
# T1 construct: made in house; host or cells: chemical peptide synthesis
# T1 sequence (P04578 546-581): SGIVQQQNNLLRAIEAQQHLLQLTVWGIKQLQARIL
# Procedure: CD measurements were performed in phosphate-buffered saline (50 mM sodium phosphate, 150 mM NaCl, pH 7.0) with an Aviv Model 62DS spectrometer as previously described (M. Lu, S. C. Blacklow, P. S. Kim, Nat. Struct. Biol., 2:1075 (1995)). The apparent melting temperature of each complex was estimated from the maximum of the first derivative of [θ]222 with respect to temperature.
# as §1
# [2] = test system: syncytia formation between Chinese hamster ovary cell expressing HXB2 envelope and HeLa-CD4-LTR-Beta-gal cells
# Procedure: In each instance, a blocking group (e.g., an acetyl group) was present at the N terminus and a CONH2 (amide) was present at the C-terminus.
# Inhibition of cell/cell fusion (i.e., syncytia formation) was assayed by co-culturing Chinese hamster ovary cell expressing HXB2 envelope (K. Kozarsky, et al., J. Acquir. Immune. Defic. Syndr., 2:163 (1989) and the HeLa-CD4-LTR-Beta-gal cells (M. Emerman, NIH AIDS Reagent program) in the presence of varying concentration of peptide. When mixed, these cells form syncytia, or multi-nucleated cells, which express β-galactosidase. Approximately twenty hours after co-culturing the cells, the monolayers were stained with 5-bromo-4-chloro-3-indolyl-β-D-galactoside to visualize the syncytia. The syncytia are visualized with a microscope and counted manually (a syncytia is scored as a fused cell containing three or more nuclei). The IC50 was calculated from fitting the data to a Langmuir equation [y=k/(1+[peptide]/IC50)+x], where y=number of syncytia and k and x are scaling constants.
# [3] = read-out: IC50 cell fusion, syncytium assay, mean ± standard error, triplicate
Molecule,IC50 [1],Tm (apparent melting temperature) of N36/C34 complex (N36 peptide),mean residue ellipticity [θ]222 of N36/C34 complex (N36 peptide),"IC50 [2, 3]",IC50 for inhibition of syncytia formation relative to parent peptide without the added lysines ([2]; two additional N-terminal lysines vs parent D-peptide),inhibition of infection of cells ([1]; infectivity assay),"IC50 ([2]; read-out: IC50 syncytia formation, D-peptide, N-terminal acetyl, C-terminal amide)"
Ac-WMEVDREINNYTSLIHSLIEESQNQQEKNEQELL-NH2 [Trp^631→Val],13 ± 12.8 nM,43 °C,−23.9 10^3 deg cm^2 dmol^−1,4.5 ± 0.09 nM,,,
CC[C@H](NC(=O)[C@H](CCC(=O)O)NC(=O)[C@H](CCSC)NC(=O)[C@H](Cc1c[nH]c2ccccc12)NC(C)=O)C(=O)N[C@@H](CC(=O)O)C(=O)N[C@@H](CCCNC(=N)N)C(=O)N[C@@H](CCC(=O)O)C(=O)N[C@H](C(=O)N[C@@H](CC(N)=O)C(=O)N[C@@H](CC(N)=O)C(=O)N[C@@H](Cc1ccc(O)cc1)C(=O)N[C@H](C(=O)N[C@@H](CO)C(=O)N[C@@H](CC(C)C)C(=O)N[C@H](C(=O)N[C@@H](Cc1c[nH]cn1)C(=O)N[C@@H](CO)C(=O)N[C@@H](CC(C)C)C(=O)N[C@H](C(=O)N[C@@H](CCC(=O)O)C(=O)N[C@@H](CCC(=O)O)C(=O)N[C@@H](CO)C(=O)N[C@@H](CCC(N)=O)C(=O)N[C@@H](CC(N)=O)C(=O)N[C@@H](CCC(N)=O)C(=O)N[C@@H](CCC(N)=O)C(=O)N[C@@H](CCC(=O)O)C(=O)N[C@@H](CCCCN)C(=O)N[C@@H](CC(N)=O)C(=O)N[C@@H](CCC(=O)O)C(=O)N[C@@H](CCC(N)=O)C(=O)N[C@@H](CCC(=O)O)C(=O)N[C@@H](CC(C)C)C(=O)N[C@@H](CC(C)C)C(N)=O)[C@@H](C)CC)[C@@H](C)CC)[C@@H](C)O)[C@@H](C)CC [Trp^631→Abu],,43 °C,−23.2 10^3 deg cm^2 dmol^−1,,,,
Ac-WMEFDREINNYTSLIHSLIEESQNQQEKNEQELL-NH2 [Trp^631→Phe],3.61 ± 0.8 nM,59 °C,−26.3 10^3 deg cm^2 dmol^−1,1.6 ± 0.05 nM,,,
"Ac-KKKKGACELLGWEWAWLCAA-CONH2 (Ac-KKKKG[dA][dC][dE][dL][dL]G[dW][dE][dW][dA][dW][dL][dC][dA][dA]-NH2; disulfide 7-18 (inferred); not fully specified (residues 1, 2, 3, 4); printed as Ac-KKKKGACELLGWEWAWLCAA-CONH2) [Peptide D10pep5a]",,,,,approximately 2 fold,,
CC[C@H](C)[C@H](NC(=O)[C@H](CC(C)C)NC(=O)[C@H](CO)NC(=O)[C@H](Cc1c[nH]cn1)NC(=O)[C@@H](NC(=O)[C@H](CC(C)C)NC(=O)[C@H](CO)NC(=O)[C@@H](NC(=O)[C@H](Cc1ccc(O)cc1)NC(=O)[C@H](CC(N)=O)NC(=O)[C@H](CC(N)=O)NC(=O)[C@@H](NC(=O)[C@H](CCC(=O)O)NC(=O)[C@H](CCCNC(=N)N)NC(=O)[C@H](CC(=O)O)NC(=O)[C@H](C)NC(=O)[C@H](CCC(=O)O)NC(=O)[C@H](CCSC)NC(=O)[C@H](Cc1c[nH]c2ccccc12)NC(C)=O)[C@@H](C)CC)[C@@H](C)O)[C@@H](C)CC)C(=O)N[C@@H](CCC(=O)O)C(=O)N[C@@H](CCC(=O)O)C(=O)N[C@@H](CO)C(=O)N[C@@H](CCC(N)=O)C(=O)N[C@@H](CC(N)=O)C(=O)N[C@@H](CCC(N)=O)C(=O)N[C@@H](CCC(N)=O)C(=O)N[C@@H](CCC(=O)O)C(=O)N[C@@H](CCCCN)C(=O)N[C@@H](CC(N)=O)C(=O)N[C@@H](CCC(=O)O)C(=O)N[C@@H](CCC(N)=O)C(=O)N[C@@H](CCC(=O)O)C(=O)N[C@@H](CC(C)C)C(=O)N[C@@H](CC(C)C)C(N)=O [Trp^631→Ala],40 ± 4.3 nM,37 °C,−24.9 10^3 deg cm^2 dmol^−1,,,,
CC(=O)N[C@H](CCCCN)C(=O)N[C@H](CCCCN)C(=O)NCC(=O)N[C@H](C)C(=O)N[C@@H]1CSSC[C@H](C(=O)N[C@H](C)C(=O)N[C@H](C)C(N)=O)NC(=O)[C@@H](CC(C)C)NC(=O)[C@@H](Cc2c[nH]c3ccccc23)NC(=O)[C@@H](C)NC(=O)[C@@H](Cc2c[nH]c3ccccc23)NC(=O)[C@@H](CCC(=O)O)NC(=O)[C@@H](Cc2c[nH]c3ccccc23)NC(=O)CNC(=O)[C@@H](CC(C)C)NC(=O)[C@@H](CC(C)C)NC(=O)[C@@H](CCC(=O)O)NC1=O [Peptide D10pep5],,,,,,inhibit infection of cells,~6000 nM
